Values joined by “and” are separate entries in the source; they are usually repeats but may differ in a detail not shown here. Equal values may be shown once.
Tested on: ATCC 14154, mouse virulent Staphylococcus aureus
Assay: Mouse model of topical Gram positive (Staphylococcus aureus) infection, infected suture
Type: in vivo
Conditions: Group 5 enrofloxacin (Baytril) 10 mg/kg SQ SID×7 days, mice
Experimental: The model, as described in J. Gisby and J. Bryant, Antimicrobial Agents and Chemotherapy, February 2000, Vol. 44, No. 2, p 255-260, was used.
Fifty HSD:ICR male mice weighing 12-14 grams were ordered and allowed to acclimate 7 days. Mice were allocated to 5 groups of 10 animals each.
Group 1: infected suture placed, no treatment
Group 2: topical GRPB, 12.5 mg/kg BID×7 days
Group 3: topical GRPB, 25 mg/kg BID×7 days
Group 4: clean suture, no treatment
Group 5: enrofloxacin (Baytril) 10 mg/kg SQ SID×7 days
ATCC 14154, mouse virulent Staphylococcus aureus was grown in BHI broth overnight (12 hours) at 38 degrees C. Forty-five minutes prior to surgery, silk suture (2-0 size, 1 cm lengths w/swaged-on blunt needle) was soaked in the broth for 30 minutes, excess liquid was then removed by blotting with filter paper.
Mice were anesthetized with a ketamine (40 mg/kg), midazolam (2 mg/kg), and butorphanol (0.1 mg/kg) as a single IP injection.
The skin on the back of the mouse was prepared for aseptic surgery by clipping, cleansing with iodine scrub, and rinsing with alcohol. Mice were kept warm during surgery on a recirculating hot water blanket.
The suture was placed just under the skin on the dorsum of the animal using sterile instruments. The suture was knotted in the subcutaneous tissue to keep it in place. A half-thickness skin wound was made over the suture using the side of an 18 gauge needle as a scalpel.
Mice were allowed to recover in the home cage.
GRPB-10-15A was reconstituted as directed, using a minimal amount of methanol followed by dilution to required volume in sterile physiologic saline.
Injections were given using insulin syringes with 30 gauge needles. Topical administration was placed over the wound site. The mice were first treated 4 hours after surgery and were treated once or twice daily thereafter.
After 7 days of treatment animals were euthanized with IP pentobarbital euthanasia solution. The suture lengths were removed and placed in 2 mls phosphate buffered saline. Serial dilutions were performed and results reported as actual counts (number of Staph colonies per suture).

CCN1CCN(c2cc3c(cc2F)c(=O)c(C(=O)O)cn3C2CC2)CC1 [Baytril, enrofloxacin, reference compound]
Total colonies (number of Staph colonies per suture), individual animals (animals 1-10, 10 mg/kg): 18 colonies per suture and 30 colonies per suture and 24 colonies per suture and 100 colonies per suture and 0 colonies per suture (2×) and 74 colonies per suture and 13 colonies per suture and 740 colonies per suture and 22 colonies per suture | Total colonies (number of Staph colonies per suture), Ave. (average of 10 animals): 102 colonies per suture
